“And” between values parts separate entries of the source, which are not always exact repeats. Equal entries are not always repeated.
Experiments:
T. cruzi CYP51 = details: 2-fold molar excess over the enzyme ref 61; cited from earlier work
human CYP51 = details: cited from earlier work
A. castellanii CYP51 [1] = biological target: T1, A. castellanii CYP51 (Acanthamoeba castellanii, UniProt L8GJB3, V2A); details: full-length enzyme, type I spectral response
T1 sequence (L8GJB3 1-486 V2A): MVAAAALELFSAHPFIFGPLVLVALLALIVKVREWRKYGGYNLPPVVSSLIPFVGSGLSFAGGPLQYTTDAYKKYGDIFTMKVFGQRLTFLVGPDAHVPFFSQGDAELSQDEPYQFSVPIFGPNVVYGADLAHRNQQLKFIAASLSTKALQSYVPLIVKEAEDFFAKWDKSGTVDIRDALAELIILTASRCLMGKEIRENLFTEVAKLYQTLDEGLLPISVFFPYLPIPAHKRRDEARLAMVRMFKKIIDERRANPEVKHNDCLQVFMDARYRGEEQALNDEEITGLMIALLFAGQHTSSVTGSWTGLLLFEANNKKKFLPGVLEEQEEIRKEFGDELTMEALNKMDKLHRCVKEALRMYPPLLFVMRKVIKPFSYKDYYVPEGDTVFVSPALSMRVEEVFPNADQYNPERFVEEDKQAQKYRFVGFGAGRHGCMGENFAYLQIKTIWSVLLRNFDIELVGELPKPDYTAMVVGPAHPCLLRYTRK
T1 sequence (P00388 2-678 partner): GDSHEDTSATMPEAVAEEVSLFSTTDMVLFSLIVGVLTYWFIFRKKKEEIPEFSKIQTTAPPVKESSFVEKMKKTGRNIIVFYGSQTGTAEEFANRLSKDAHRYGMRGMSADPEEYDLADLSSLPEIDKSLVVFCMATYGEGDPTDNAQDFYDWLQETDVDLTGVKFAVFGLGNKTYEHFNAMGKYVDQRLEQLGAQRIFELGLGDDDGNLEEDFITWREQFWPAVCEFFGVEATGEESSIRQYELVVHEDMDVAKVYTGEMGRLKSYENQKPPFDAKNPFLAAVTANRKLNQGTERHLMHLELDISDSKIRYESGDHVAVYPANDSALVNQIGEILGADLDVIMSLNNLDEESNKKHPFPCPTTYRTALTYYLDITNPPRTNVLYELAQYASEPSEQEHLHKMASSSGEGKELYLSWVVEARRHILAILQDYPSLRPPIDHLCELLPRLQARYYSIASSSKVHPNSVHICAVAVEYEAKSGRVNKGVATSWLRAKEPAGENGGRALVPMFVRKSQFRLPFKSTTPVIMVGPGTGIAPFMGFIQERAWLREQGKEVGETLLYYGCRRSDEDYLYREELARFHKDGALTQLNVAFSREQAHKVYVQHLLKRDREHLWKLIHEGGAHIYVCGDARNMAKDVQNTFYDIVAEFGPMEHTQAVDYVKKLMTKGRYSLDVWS

A. castellanii CYP51 [2] = biological target: T1, A. castellanii CYP51; details: obtusifoliol over lanosterol

| SMILES | inhibition of T. cruzi CYP51 (T. cruzi CYP51) | binding to human CYP51 (human CYP51) | low- to high-spin transition in the heme iron (A. castellanii CYP51 [1]) | fold higher catalytic efficiency than for lanosterol (substrate preference) (A. castellanii CYP51 [2]) |
| --- | --- | --- | --- | --- |
| O[C@@](Cn1cnnn1)(c1ccc(F)cc1F)C(F)(F)c1ccc(-c2ccc(OCC(F)(F)F)cc2)cn1 [VT1161, (R)-2-(2,4-difluorophenyl)-1,1-difluoro-3-(lH-tetrazol-1-yl)-1-(5-(4-(2,2,2-trifluoroethoxy)phenyl)pyridin-2-yl)propan-2-ol] | ~ 95% | does not bind |  |  |
| CC(C)=CCC[C@@H](C)[C@H]1CC[C@@]2(C)C3=C(CC[C@]12C)[C@@]1(C)CC[C@H](O)C(C)(C)[C@@H]1CC3 [lanosterol] |  |  | ~15% |  |
| C=C(CC[C@@H](C)[C@H]1CC[C@@]2(C)C3=C(CC[C@]12C)[C@@]1(C)CC[C@H](O)[C@@H](C)[C@@H]1CC3)C(C)C [obtusifoliol] |  |  | ~ 60% | ~ 100 fold and 100 fold |

From article PMC11089504 (Journal of medicinal chemistry, 2024)
